# Read-outs that look alike come from different tables or passages of the source.
# Tests used:
# cocklebur = experiment: Test B pre-/postemergence herbicide test; format: in vivo, Xanthium strumarium; settings: Xanthium strumarium; for pest or weed control at 125 g/ha: 125 g ai/ha; for pest or weed control at 500 g/ha: 500 g ai/ha
# How it was run: (§1)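 Response was scored visually 13 to 15 days after treatment against untreated greenhouse controls, 0 meaning no effect and 100 complete control. Formulations (solvent mixture plus surfactant) went onto soil after planting, onto foliage of 1- to 4-leaf plants, and onto 2-leaf plants in a flooded paddy set including rice and barnyardgrass.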
# corn = experiment: Test B pre-/postemergence herbicide test; format: in vivo, Zea mays; settings: Zea mays; for plant injury at 125 g/ha: 125 g ai/ha
# How it was run: (§2)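 Formulation: non-phytotoxic solvent mix with surfactant. Timing: preemergence on seed and postemergence on 2–18 cm plants, applied concurrently. Readout after 13–15 d greenhouse: visual 0–100 control rating against controls.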
# barnyardgrass [1] = experiment: Test B pre-/postemergence herbicide test; format: in vivo, Echinochloa crus-galli; settings: Echinochloa crus-galli, pre-emergence, 0 = no effect, 100 = complete control
# How it was run: as §1
# velvetleaf = experiment: Test B pre-/postemergence herbicide test; format: in vivo, Abutilon theophrasti; settings: Abutilon theophrasti, 336 h; for pest or weed control at 125 g/ha: 125 g ai/ha; for pest or weed control at 500 g/ha: 500 g ai/ha
# How it was run: as §2
# [2] = tested on: small flower umbrella sedge; experiment: Test B flooded paddy test; format: in vivo, Cyperus difformis; settings: Cyperus difformis, 336 h, 1000 g ai/ha, scale 0 to 100 (0 no effect, 100 complete control), read-out: Sedge, Umbrella plant response rating
# How it was run: (§3)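 Visual control ratings, 0–100 versus untreated controls, taken after 13 to 15 days in the greenhouse. Blackgrass received a postemergence spray at the 1- to 4-leaf stage (2–18 cm); ducksalad, umbrella sedge and barnyardgrass were flooded-paddy treated at 2 leaves.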
# ducksalad = experiment: Test B flooded paddy test; format: in vivo, Heteranthera limosa; settings: Heteranthera limosa, 336 h, 1000 g ai/ha, scale 0 to 100 (0 no effect, 100 complete control), read-out: Ducksalad plant response rating
# How it was run: as §3
# lambsquarters = experiment: Test B pre-/postemergence herbicide test; format: in vivo, Chenopodium album; settings: Chenopodium album, 336 h; for pest or weed control at 125 g/ha: 125 g ai/ha; for pest or weed control at 500 g/ha: 500 g ai/ha
# How it was run: as §2
# Surinam grass = experiment: Test B pre-/postemergence herbicide test; format: in vivo, Urochloa decumbens; settings: Urochloa decumbens; for pest or weed control at 125 g/ha: 125 g ai/ha; for pest or weed control at 500 g/ha: 500 g ai/ha
# How it was run: as §2
# morningglory = experiment: Test B pre-/postemergence herbicide test; format: in vivo, Ipomoea coccinea; settings: Ipomoea, 336 h; for pest or weed control at 125 g/ha: 125 g ai/ha; for pest or weed control at 500 g/ha: 500 g ai/ha
# How it was run: as §1
# giant foxtail = experiment: Test B pre-/postemergence herbicide test; format: in vivo, Setaria faberi; settings: Setaria faberi, 336 h; for pest or weed control at 125 g/ha: 125 g ai/ha; for pest or weed control at 500 g/ha: 500 g ai/ha
# How it was run: as §2
# barnyardgrass [3] = experiment: Test B flooded paddy test; format: in vivo, Echinochloa crus-galli; settings: Echinochloa crus-galli, 336 h, 1000 g ai/ha, scale 0 to 100 (0 no effect, 100 complete control), read-out: Barnyardgrass plant response rating
# How it was run: as §3
# large crabgrass = experiment: Test B pre-/postemergence herbicide test; format: in vivo, Digitaria sanguinalis; settings: Digitaria sanguinalis; for pest or weed control at 125 g/ha: 125 g ai/ha; for pest or weed control at 500 g/ha: 500 g ai/ha
# How it was run: as §2
# blackgrass = experiment: Test B postemergence herbicide test; format: in vivo, Alopecurus myosuroides; settings: Alopecurus myosuroides, post-emergence, 336 h, postemergence, visual rating, scale 0 (no effect) to 100 (complete control), read-out: Blackgrass plant response rating
# How it was run: as §3
# wheat = experiment: Test B postemergence herbicide test; format: in vivo, Triticum aestivum; settings: Triticum aestivum, post-emergence, 336 h, postemergence, visual rating, scale 0 (no effect) to 100 (complete control), read-out: Wheat plant response rating
# How it was run: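 Plants grow to 1- to 4-leaf stage (2–18 cm) for postemergence spraying, or to 2-leaf stage for the paddy test. Formulated compound is applied. Greenhouse holding lasts 13–15 days. Response is scored visually relative to controls, 0 no effect to 100 complete control; a dash means no result.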
# rice = experiment: Test B flooded paddy test; format: in vivo, Oryza sativa; settings: Oryza sativa, 336 h, 1000 g ai/ha, scale 0 to 100 (0 no effect, 100 complete control), read-out: Rice plant response rating
# How it was run: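 Scale 0–100: zero equals no visible effect, 100 complete control, judged by eye relative to controls. Timing: 13 to 15 days in greenhouse post-treatment. Growth stage at spraying: two leaves (paddy) or one to four leaves, 2–18 cm (postemergence).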
# [4] = post-emergence, postemergence, visual rating, scale 0 (no effect) to 100 (complete control), read-out: Cocklebur plant response rating
# [5] = post-emergence, postemergence, visual rating, scale 0 (no effect) to 100 (complete control), read-out: Velvetleaf plant response rating
# [6] = post-emergence, postemergence, visual rating, scale 0 (no effect) to 100 (complete control), read-out: Lambsquarters plant response rating
# [7] = post-emergence, postemergence, visual rating, scale 0 (no effect) to 100 (complete control), read-out: Surinam Grass plant response rating
# [8] = post-emergence, postemergence, visual rating, scale 0 (no effect) to 100 (complete control), read-out: Morningglory plant response rating
# [9] = post-emergence, postemergence, visual rating, scale 0 (no effect) to 100 (complete control), read-out: Foxtail, Giant plant response rating
# [10] = post-emergence, postemergence, visual rating, scale 0 (no effect) to 100 (complete control), read-out: Crabgrass, Large plant response rating
smiles,measurement,setting,value
"CCn1nc(C(C)(C)C)cc1C(=O)Nc1ccc(F)c(C(=O)N(C)C)c1 [Compound 236, N-[3-[(dimethylamino)carbonyl]-4-fluorophenyl]-3-(1,1-dimethylethyl)-1-ethyl-1H-pyrazole-5-carboxamide]",pest or weed control at 125 g/ha,cocklebur; [4],20%
same,pest or weed control at 500 g/ha,cocklebur; [4],40%
same,pest or weed control at 125 g/ha,"cocklebur; pre-emergence, 0 = no effect, 100 = complete control, read-out: Cocklebur plant response rating (0 to 100 scale)",0%
same,pest or weed control at 500 g/ha,"cocklebur; pre-emergence, visual rating, 0 = no effect, 100 = complete control, read-out: Plant response rating, Cocklebur",20%
same,plant injury at 125 g/ha,"corn; post-emergence, postemergence, visual rating, scale 0 (no effect) to 100 (complete control), read-out: Corn plant response rating",20%
same,plant injury at 500 g/ha,"corn; post-emergence, postemergence, 500 g ai/ha, visual rating, scale 0 (no effect) to 100 (complete control), read-out: Corn plant response rating",40%
same,plant injury at 125 g/ha,"corn; pre-emergence, 0 = no effect, 100 = complete control, read-out: Corn plant response rating (0 to 100 scale)",0%
same,"Corn plant response rating (crop injury, 0 = no effect, 100 = complete kill) at 500 g/ha","corn; pre-emergence, 500 g ai/ha, visual rating, 0 = no effect, 100 = complete control",10%
same,pest or weed control at 125 g/ha,"barnyardgrass [1]; 125 g ai/ha, read-out: Barnyardgrass plant response rating (0 to 100 scale)",50%
same,pest or weed control at 500 g/ha,"barnyardgrass [1]; 500 g ai/ha, visual rating, read-out: Plant response rating, Barnyardgrass",90%
same,pest or weed control at 125 g/ha,velvetleaf; [5],20%
same,pest or weed control at 500 g/ha,velvetleaf; [5],50%
same,pest or weed control at 125 g/ha,"velvetleaf; pre-emergence, 0 = no effect, 100 = complete control, read-out: Velvetleaf plant response rating (0 to 100 scale)",20%
same,pest or weed control at 500 g/ha,"velvetleaf; pre-emergence, visual rating, 0 = no effect, 100 = complete control, read-out: Plant response rating, Velvetleaf",80%
same,pest or weed control at 1000 g/ha,[2],80%
same,pest or weed control at 1000 g/ha,ducksalad,90%
same,pest or weed control at 125 g/ha,lambsquarters; [6],60%
same,pest or weed control at 500 g/ha,lambsquarters; [6],70%
same,pest or weed control at 125 g/ha,"lambsquarters; pre-emergence, 0 = no effect, 100 = complete control, read-out: Lambsquarters plant response rating (0 to 100 scale)",50%
same,pest or weed control at 500 g/ha,"lambsquarters; pre-emergence, visual rating, 0 = no effect, 100 = complete control, read-out: Plant response rating, Lambsquarters",100%
same,pest or weed control at 125 g/ha,Surinam grass; [7],0%
same,pest or weed control at 500 g/ha,Surinam grass; [7],20%
same,pest or weed control at 125 g/ha,"Surinam grass; pre-emergence, 0 = no effect, 100 = complete control, read-out: Surinam Grass plant response rating (0 to 100 scale)",20%
same,pest or weed control at 500 g/ha,"Surinam grass; pre-emergence, visual rating, 0 = no effect, 100 = complete control, read-out: Plant response rating, Surinam Grass",60%
same,pest or weed control at 125 g/ha,morningglory; [8],10%
same,pest or weed control at 500 g/ha,morningglory; [8],60%
same,pest or weed control at 125 g/ha,"morningglory; pre-emergence, 0 = no effect, 100 = complete control, read-out: Morningglory plant response rating (0 to 100 scale)",0%
same,pest or weed control at 500 g/ha,"morningglory; pre-emergence, visual rating, 0 = no effect, 100 = complete control, read-out: Plant response rating, Morningglory",20%
same,pest or weed control at 125 g/ha,giant foxtail; [9],10%
same,pest or weed control at 500 g/ha,giant foxtail; [9],40%
same,pest or weed control at 125 g/ha,"giant foxtail; pre-emergence, 0 = no effect, 100 = complete control, read-out: Foxtail, Giant plant response rating (0 to 100 scale)",10%
same,pest or weed control at 500 g/ha,"giant foxtail; pre-emergence, visual rating, 0 = no effect, 100 = complete control, read-out: Plant response rating, Foxtail, Giant",50%
same,pest or weed control at 1000 g/ha,barnyardgrass [3],80%
same,pest or weed control at 125 g/ha,large crabgrass; [10],0%
same,pest or weed control at 500 g/ha,large crabgrass; [10],20%
same,pest or weed control at 125 g/ha,"large crabgrass; pre-emergence, 0 = no effect, 100 = complete control, read-out: Crabgrass, Large plant response rating (0 to 100 scale)",30%
same,pest or weed control at 500 g/ha,"large crabgrass; pre-emergence, visual rating, 0 = no effect, 100 = complete control, read-out: Plant response rating, Crabgrass, Large",70%
same,pest or weed control at 125 g/ha,blackgrass; 125 g ai/ha,0%
same,pest or weed control at 500 g/ha,blackgrass; 500 g ai/ha,10%
same,plant injury at 125 g/ha,wheat; 125 g ai/ha,10%
same,plant injury at 500 g/ha,wheat; 500 g ai/ha,20%
same,plant injury at 1000 g/ha,rice,70%

# Source: US20060069132A1, “Azolecarboxamide herbicides” (priority 2004, published 2006)
